Experimental data reported in ChEMBL document CHEMBL6092212, “Discovery of novel substituted (Z)-N'-hydroxy-3-(3-phenylureido)benzimidamide derivatives as multifunctional molecules targeting pathological hallmarks of Alzheimer's disease” (Eur J Med Chem, 2024).
The source made the active and inactive calls.

Tests used:
[1] = target: Amyloid-beta precursor protein (Homo sapiens) (UniProt P05067); assay: Inhibition of self-mediated Amyloid beta (1 to 42)(unknown origin) aggregation at 3.125 uM incubated for 3 days by ThT assay; conditions: time 3.0 day
[2] = system: Mus musculus; assay: Neuroprotective activity against scopolamine-induced cognitive deficit Swiss albino mouse model assessed as increase in GAP43 mRNA level at 10 mg/kg, ip measured after 14 days by RT-PCR analysis; format: functional, organism-based; conditions: time 14.0 day
[3] = system: HMC3; assay: Antiinflammatory activity against LPS/ATP-induced human HMC3 cells assessed as reduction in NLRP3 level at 12.5 uM by immunocytochemistry based analysis; format: functional, cell-based
[4] = Induction of NO release upto 100 uM incubated for 5 to 10 mins by Griess assay; format: functional; conditions: time 5-10 min
[5] = system: Mus musculus; assay: Neuroprotective activity against scopolamine-induced cognitive deficit Swiss albino mouse model assessed as increase in PKA mRNA level at 10 mg/kg, ip measured after 14 days by RT-PCR analysis; format: functional, organism-based; conditions: time 14.0 day
[6] = Acute toxicity in Swiss albino mouse assessed as animal survival at 2000 mg/kg, po measured 14 days post-administration; format: organism-based; conditions: in vivo, 336 h, time 14 day
[7] = target: T1, Acetylcholinesterase (Homo sapiens, UniProt P22303); assay: Inhibition of human AChE using ATCI as substrate preincubated for 30 mins followed by substrate addition measured after 30 mins by Ellman's method
[8] = Acute toxicity in Swiss albino mouse assessed as signs of over-weight gain at 2000 mg/kg, po measured 14 days post-administration; format: organism-based; conditions: in vivo, 336 h, time 14 day
[9] = system: Mus musculus; assay: Reversal of scopolamine-induced cognitive deficit Swiss albino mouse model assessed as decrease in escape latency at 10 mg/kg, ip measured for 5 days by Morris water maze test; format: functional, organism-based; conditions: time 5.0 day
[10] = system: HMC3; assay: Antiinflammatory activity against LPS/ATP-induced human HMC3 cells assessed as increase in vimentin level at 12.5 uM by immunocytochemistry based analysis; format: functional, cell-based
[11] = system: Mus musculus; assay: Neuroprotective activity against scopolamine-induced cognitive deficit Swiss albino mouse model assessed as increase in TRKB mRNA level at 10 mg/kg, ip measured after 14 days by RT-PCR analysis; format: functional, organism-based; conditions: time 14.0 day
[12] = Permeability of compound in PBS at pH 7.4 at 500 uM by PAMPA; format: ADME; conditions: read-out: permeability
[13] = system: HMC3; assay: Antiinflammatory activity against LPS/ATP-induced human HMC3 cells assessed as reduction in IL-1beta level at 12.5 uM by Western blot analysis; format: functional, cell-based
[14] = Acute toxicity in Swiss albino mouse assessed as signs of convulsion at 2000 mg/kg, po measured 14 days post-administration; format: organism-based; conditions: in vivo, 336 h, time 14 day
[15] = system: HMC3; assay: Antiinflammatory activity against LPS/ATP-induced human HMC3 cells assessed as reduction in NF-kappaB level at 12.5 uM by immunocytochemistry based analysis; format: functional, cell-based
[16] = system: HMC3; assay: Antiinflammatory activity against LPS/ATP-induced human HMC3 cells assessed as decrease in Iba-1 level at 12.5 uM by Western blot analysis; format: functional, cell-based
[17] = system: HMC3; assay: Antiinflammatory activity against LPS/ATP-induced human HMC3 cells assessed as reduction in caspase-1 level at 12.5 uM by Western blot analysis; format: functional, cell-based
[18] = Antioxidant activity assessed as DPPH radical scavenging activity at 20 to 200 uM incubated for 30 mins by absorbance based analysis relative to control; format: functional; conditions: dose 20-200 µM
[19] = target: Cholinesterase (Homo sapiens, UniProt P06276); assay: Inhibition of human BChE using BTCI as substrate preincubated for 30 mins followed by substrate addition measured after 30 mins by Ellman's method
[20] = Metal chelating activity assessed as compound-Fe3+ complex formation at 600 uM incubated for 24 hrs by UV spectrophotometry
[21] = Acute toxicity in Swiss albino mouse assessed as signs of abnormal behaviour at 2000 mg/kg, po measured 14 days post-administration; format: organism-based; conditions: in vivo, 336 h, time 14 day
[22] = system: HMC3; assay: Antiinflammatory activity against LPS/ATP-induced human HMC3 cells assessed as increase in Nrf2 level at 12.5 uM by Western blot analysis; format: functional, cell-based
[23] = target: Cholinesterase (Equus caballus, UniProt P81908); assay: Inhibition of equine BChE using BTCI as substrate preincubated for 30 mins followed by substrate addition measured after 30 mins by Ellman's method
[24] = system: Mus musculus; assay: Neuroprotective activity against scopolamine-induced cognitive deficit Swiss albino mouse model assessed as increase in c-FOS mRNA level at 10 mg/kg, ip measured after 14 days by RT-PCR analysis; format: functional, organism-based; conditions: time 14.0 day
[25] = Acute toxicity in Swiss albino mouse assessed as signs of diarrhea at 2000 mg/kg, po measured 14 days post-administration; format: organism-based; conditions: in vivo, 336 h, time 14 day
[26] = system: Mus musculus; assay: Reversal of scopolamine-induced cognitive deficit Swiss albino mouse model assessed as reduction in distance traveled to reach platform at 10 mg/kg, ip measured after 5 days by Morris water maze test; format: functional, organism-based; conditions: time 5.0 day
[27] = target: Microtubule-associated protein tau (Homo sapiens) (UniProt P10636); assay: Inhibition of Tau (unknown origin) aggregation at 1.125 uM incubated for 3 days by ThT assay; conditions: time 3.0 day
[28] = system: HMC3; assay: Antiinflammatory activity against LPS/ATP-induced human HMC3 cells assessed as reduction in IL-18 level at 12.5 uM by Western blot analysis; format: functional, cell-based
[29] = system: Mus musculus; assay: Reversal of scopolamine-induced cognitive deficit Swiss albino mouse model assessed as increase in time in platform quadrant at 10 mg/kg, ip measured after 5 days by Morris water maze test; format: functional, organism-based; conditions: time 5.0 day
[30] = system: HMC3; assay: Antiinflammatory activity against LPS/ATP-induced human HMC3 cells assessed as reduction in nuclear translocation of NF-kappaB at 12.5 uM by immunocytochemistry based analysis; format: functional, cell-based
[31] = system: Mus musculus; assay: Neuroprotective activity against scopolamine-induced cognitive deficit Swiss albino mouse model assessed as increase in Nr4a2 mRNA level at 10 mg/kg, ip measured after 14 days by RT-PCR analysis; format: functional, organism-based; conditions: time 14.0 day
[32] = system: HMC3; assay: Inhibition of mitochondrial impairment in LPS/ATP-induced human HMC3 cells at 12.5 uM incubated for 24 hrs by Rhodamine 123/JC-1 staining based analysis; format: functional, cell-based
[33] = target: T1, Acetylcholinesterase; assay: Mixed inhibition of human AChE using ATCI as substrate at 0.1 to 5 uM preincubated for 30 mins followed by substrate addition by Ellman's method; conditions: dose 0.1-5 µM
[34] = system: PC-12; assay: Cytotoxicity against rat PC-12 cells upto 20 uM incubated for 24 hrs by MTT assay; format: toxicity, cell-based; conditions: pc-12, 24 h
[35] = Antioxidant activity assessed as inhibition of DPPH radical scavenging activity incubated for 30 mins by absorbance based analysis; format: functional
[36] = system: Mus musculus; assay: Neuroprotective activity against scopolamine-induced cognitive deficit Swiss albino mouse model assessed as increase in BDNF mRNA level at 10 mg/kg, ip measured after 14 days by RT-PCR analysis; format: functional, organism-based; conditions: time 14.0 day
[37] = target: Cholinesterase (Equus caballus) (UniProt P81908); assay: Competitive inhibition of equine BChE using BTCI as substrate at 1 to 10 uM preincubated for 30 mins followed by substrate addition by Ellman's method; conditions: dose 1-10 µM
[38] = system: HMC3; assay: Inhibition of LPS/ATP-induced cytotoxicity against human HMC3 cells at 12.5 uM incubated for 24 hrs by MTT assay; format: functional, cell-based
[39] = system: Mus musculus; assay: Neuroprotective activity against scopolamine-induced cognitive deficit Swiss albino mouse model assessed as increase in CREB1 mRNA level at 10 mg/kg, ip measured after 14 days by RT-PCR analysis; format: functional, organism-based; conditions: time 14.0 day
[40] = system: HMC3; assay: Induction of mitochondrial membrane potential stability in LPS/ATP-induced human HMC3 cells at 12.5 uM incubated for 24 hrs by Rhodamine 123/JC-1 staining based analysis; format: functional, cell-based
[41] = Acute toxicity in Swiss albino mouse assessed as signs of tremor at 2000 mg/kg, po measured 14 days post-administration; format: organism-based; conditions: in vivo, 336 h, time 14 day
[42] = system: Mus musculus; assay: Protection against scopolamine-associated dementia in Swiss albino mouse model assessed as increase in latency period at 10 mg/kg, ip measured after 14 days by Passive avoidance task method; format: functional, organism-based; conditions: time 14.0 day
[43] = system: HMC3; assay: Antiinflammatory activity against LPS/ATP-induced human HMC3 cells assessed as reduction in NLRP3 level at 12.5 uM by Western blot analysis; format: functional, cell-based
[44] = system: HMC3; assay: Inhibition of ROS production in LPS/ATP-induced human HMC3 cells at 12.5 uM incubated for 24 hrs by MitoSOX Red FM staining based analysis; format: functional, cell-based
[45] = system: Mus musculus; assay: Reversal of scopolamine-induced cognitive deficit Swiss albino mouse model assessed as increase in number of entries in target quadrant at 10 mg/kg, ip measured after 5 days by Morris water maze test; format: functional, organism-based; conditions: time 5.0 day
[46] = system: Mus musculus; assay: Neuroprotective activity against scopolamine-induced cognitive deficit Swiss albino mouse model assessed as increase in PSD95 mRNA level at 10 mg/kg, ip measured after 14 days by RT-PCR analysis; format: functional, organism-based; conditions: time 14.0 day

T1 sequence (P22303 whole entry): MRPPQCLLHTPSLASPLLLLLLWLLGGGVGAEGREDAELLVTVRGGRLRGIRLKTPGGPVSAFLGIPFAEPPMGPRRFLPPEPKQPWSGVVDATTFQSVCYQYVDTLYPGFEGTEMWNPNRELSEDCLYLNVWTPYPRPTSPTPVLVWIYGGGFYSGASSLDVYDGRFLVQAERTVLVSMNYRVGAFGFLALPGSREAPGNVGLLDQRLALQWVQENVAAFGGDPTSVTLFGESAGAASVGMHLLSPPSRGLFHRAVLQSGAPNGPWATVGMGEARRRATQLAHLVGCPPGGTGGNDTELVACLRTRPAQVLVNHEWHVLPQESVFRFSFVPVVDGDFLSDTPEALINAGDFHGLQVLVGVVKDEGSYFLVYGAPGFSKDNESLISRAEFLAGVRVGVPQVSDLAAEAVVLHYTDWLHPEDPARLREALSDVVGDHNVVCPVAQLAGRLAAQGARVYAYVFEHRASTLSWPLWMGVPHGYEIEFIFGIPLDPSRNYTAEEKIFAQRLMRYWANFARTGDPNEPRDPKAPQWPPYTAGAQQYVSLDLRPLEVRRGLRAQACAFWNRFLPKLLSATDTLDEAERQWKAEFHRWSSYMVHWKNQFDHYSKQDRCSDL
Microtubule-associated protein tau (Homo sapiens), sequence (P10636 whole entry): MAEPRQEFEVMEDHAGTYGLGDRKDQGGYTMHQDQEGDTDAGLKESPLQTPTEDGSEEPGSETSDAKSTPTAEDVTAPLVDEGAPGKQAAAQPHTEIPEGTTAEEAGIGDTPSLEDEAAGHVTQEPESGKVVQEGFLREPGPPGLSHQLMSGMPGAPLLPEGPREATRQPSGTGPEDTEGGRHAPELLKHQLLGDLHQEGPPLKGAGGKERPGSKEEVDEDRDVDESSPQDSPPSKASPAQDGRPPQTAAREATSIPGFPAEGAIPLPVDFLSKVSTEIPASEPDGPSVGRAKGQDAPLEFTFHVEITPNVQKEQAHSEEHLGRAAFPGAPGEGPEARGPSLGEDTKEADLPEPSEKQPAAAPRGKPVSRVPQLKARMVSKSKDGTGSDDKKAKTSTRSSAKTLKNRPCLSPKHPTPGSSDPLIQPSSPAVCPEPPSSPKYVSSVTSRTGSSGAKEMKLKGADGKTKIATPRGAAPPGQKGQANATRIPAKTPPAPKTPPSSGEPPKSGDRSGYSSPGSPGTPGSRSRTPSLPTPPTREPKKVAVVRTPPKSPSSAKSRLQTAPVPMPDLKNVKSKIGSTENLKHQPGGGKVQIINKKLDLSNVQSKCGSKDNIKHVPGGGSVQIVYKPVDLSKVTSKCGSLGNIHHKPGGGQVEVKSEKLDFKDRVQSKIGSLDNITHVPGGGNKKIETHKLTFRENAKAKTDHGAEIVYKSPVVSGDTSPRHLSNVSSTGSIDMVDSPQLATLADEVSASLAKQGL
Amyloid-beta precursor protein (Homo sapiens), sequence (P05067 whole entry): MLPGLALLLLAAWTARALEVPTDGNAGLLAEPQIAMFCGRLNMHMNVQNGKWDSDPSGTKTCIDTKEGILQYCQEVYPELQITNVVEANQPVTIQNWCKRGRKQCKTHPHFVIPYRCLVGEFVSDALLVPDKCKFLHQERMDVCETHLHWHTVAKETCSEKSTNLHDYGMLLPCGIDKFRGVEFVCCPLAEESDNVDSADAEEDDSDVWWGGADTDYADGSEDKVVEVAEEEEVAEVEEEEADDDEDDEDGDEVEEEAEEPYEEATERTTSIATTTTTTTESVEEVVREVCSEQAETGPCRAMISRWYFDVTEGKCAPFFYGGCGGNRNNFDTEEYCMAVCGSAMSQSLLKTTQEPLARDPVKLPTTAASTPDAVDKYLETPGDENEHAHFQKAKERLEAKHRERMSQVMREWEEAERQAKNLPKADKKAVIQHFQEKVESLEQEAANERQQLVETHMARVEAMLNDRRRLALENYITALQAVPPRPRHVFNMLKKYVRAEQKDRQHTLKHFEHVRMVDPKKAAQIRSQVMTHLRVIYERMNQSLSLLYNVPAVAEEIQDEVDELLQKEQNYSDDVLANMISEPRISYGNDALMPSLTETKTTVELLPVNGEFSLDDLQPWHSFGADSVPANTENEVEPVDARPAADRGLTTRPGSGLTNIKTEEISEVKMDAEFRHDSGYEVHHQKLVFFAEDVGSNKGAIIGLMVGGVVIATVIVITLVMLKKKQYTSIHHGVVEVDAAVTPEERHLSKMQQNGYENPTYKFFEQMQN
Cholinesterase (Homo sapiens, UniProt P06276), sequence (P06276 whole entry): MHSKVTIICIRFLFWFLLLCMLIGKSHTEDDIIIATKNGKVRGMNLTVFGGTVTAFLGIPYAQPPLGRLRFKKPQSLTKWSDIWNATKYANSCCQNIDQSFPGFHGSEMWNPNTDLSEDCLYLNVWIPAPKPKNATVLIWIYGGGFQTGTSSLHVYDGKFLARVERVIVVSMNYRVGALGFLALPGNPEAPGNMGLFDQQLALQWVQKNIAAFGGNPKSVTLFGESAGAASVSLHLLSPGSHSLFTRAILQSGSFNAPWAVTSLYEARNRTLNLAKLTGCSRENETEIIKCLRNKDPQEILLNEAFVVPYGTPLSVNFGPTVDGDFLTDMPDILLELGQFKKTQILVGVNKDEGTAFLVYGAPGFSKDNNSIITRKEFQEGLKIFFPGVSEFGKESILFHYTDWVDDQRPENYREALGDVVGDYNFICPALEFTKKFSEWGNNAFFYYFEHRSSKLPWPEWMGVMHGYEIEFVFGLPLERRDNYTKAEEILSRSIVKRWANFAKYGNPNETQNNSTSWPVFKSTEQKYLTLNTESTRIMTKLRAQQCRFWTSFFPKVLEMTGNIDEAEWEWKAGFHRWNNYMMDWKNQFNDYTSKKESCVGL
Cholinesterase (Equus caballus, UniProt P81908), sequence (P81908 whole entry): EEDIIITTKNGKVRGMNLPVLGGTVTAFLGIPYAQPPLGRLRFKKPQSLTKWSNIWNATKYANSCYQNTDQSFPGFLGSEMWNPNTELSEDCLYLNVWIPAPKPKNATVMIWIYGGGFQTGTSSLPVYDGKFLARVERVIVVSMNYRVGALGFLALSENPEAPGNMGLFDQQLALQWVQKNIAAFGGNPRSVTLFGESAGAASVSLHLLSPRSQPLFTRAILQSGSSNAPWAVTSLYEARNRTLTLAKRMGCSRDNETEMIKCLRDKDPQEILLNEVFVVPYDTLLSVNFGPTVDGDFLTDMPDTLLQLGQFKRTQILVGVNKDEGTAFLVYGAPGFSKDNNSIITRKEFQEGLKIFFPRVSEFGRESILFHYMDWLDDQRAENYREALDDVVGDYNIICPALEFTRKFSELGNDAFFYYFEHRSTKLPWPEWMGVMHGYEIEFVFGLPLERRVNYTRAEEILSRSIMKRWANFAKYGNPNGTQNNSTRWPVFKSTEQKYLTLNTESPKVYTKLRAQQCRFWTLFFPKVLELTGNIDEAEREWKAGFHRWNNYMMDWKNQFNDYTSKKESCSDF
Cholinesterase (Equus caballus), sequence (P81908 whole entry): as above

COc1ccc2[nH]cc(CCNC(=O)Nc3cccc(/C(N)=N/O)c3)c2c1
910 nM: IC50 [7]
active: inhibition [1] | Activity [2] | Activity [3] | Activity [5] | Activity [9] | Activity [10] | Activity [11] | Activity [13] | Activity [15] | Activity [16] | Activity [17] | Activity [22] | Activity [24] | Activity [26] | inhibition [27] | Activity [28] | Activity [29] | Activity [30] | Activity [31] | inhibition [32] | inhibition [33] | Activity [36] | inhibition [37] | inhibition [38] | Activity [39] | Activity [40] | Activity [42] | Activity [43] | inhibition [44] | Activity [45] | Activity [46]
Non-toxic: Activity [6] | Activity [8] | Activity [14] | Activity [21] | Activity [25] | Activity [34] | Activity [41]
1190 nM: IC50 [23]
12.3 ×10⁻⁶ cm/s: Papp at 500 µM [12]
inactive: Activity [4] | Activity [20]
1010 nM: IC50 [19]
15200 nM: IC50 [35]
47.3%: Activity [18]
